# Measured values as given in patent publication US8637516B2 (IRM LLC, priority 2010, dated 2014).
# What was measured:
# [1] = molecular target: T1, Ba/F3 cells transformed with human Tel-TrkA (Homo sapiens, UniProt P04629); test: Proliferation of Ba/F3 cells transformed with human Tel-TrkA (Ba/F3 Tel-TrkA); type: cell-based; conditions: Table 1; 48 hours, Bright Glo luminescence; read-out: Ba/F3 Tel-TrkA
# T1 construct: expressed in transfected cells; host or cells: Ba/F3 murine hematopoietic progenitor cells (luciferase expressing); the other entry of the earlier key: ETV6 (P41212, Transcription factor ETV6)
# T1 sequence (P04629 510-796 limits assumed): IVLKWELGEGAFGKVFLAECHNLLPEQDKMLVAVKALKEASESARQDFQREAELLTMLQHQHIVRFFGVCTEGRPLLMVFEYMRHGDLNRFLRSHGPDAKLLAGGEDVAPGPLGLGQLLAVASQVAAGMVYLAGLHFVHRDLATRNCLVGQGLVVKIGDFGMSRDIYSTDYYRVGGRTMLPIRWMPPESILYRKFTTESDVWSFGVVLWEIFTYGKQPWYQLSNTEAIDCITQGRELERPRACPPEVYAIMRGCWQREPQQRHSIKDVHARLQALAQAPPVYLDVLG
# Text: (§1) Compound dilutions were made in 384 well plates.
# (§2) The emited luminiscence is quantified using ViewLux (PerkinElmer).
# parental Ba/F3 cells = test: Proliferation of parental (untransformed, wt) Ba/F3 cells (BAF3/WT); type: cell-based, murine; conditions: Mus musculus, Table 1, parental cells with IL3, 48 hours
# Method: as §1
# Compounds were tested for their ability to inhibit the proliferation of wt Ba/F3 cells and Ba/F3 cells transformed with constitutively expressed luciferase reporter and BCR-ABL or Tel-FMS or other Tel fusion kinases (EGFR, JAK2, ALK, BMX, FGFR3, FGFR4, FGR2, FLT1, FLT3, IGF1R, INSR, KDR, KIT, LCK, LYN, MEK, MET, PDGFRα, PDGFRβ, RET, RON, ROS, SRC, SYK, TIE and TYRO) or BRafV600E. Parental Ba/F3 cells were maintained in media containing recombinant mouse IL3 and the kinase transformed Ba/F3 cells were maintained in media without IL-3. 7.5 nl of compounds were spotted to each well of 1536-well assay plates by Liquid handling System Echo 555 (Labcyte). 700 cells were then plated into each well of the assay plates in 7 uL culture media per well and compounds were tested at 0.17 nM to 10 uM in 3-fold serial dilutions. The cells were then incubated for 48 hours at 37° C. 3 uL of Bright-Glo® (Promega) was added to each well and the plates were read using ViewLux (PerkinElmer).
# as §2
structure (smiles),measurement,setting,value
"O=C(CCc1cccc(F)c1)c1cnc2ccc(N3CCC[C@@H]3c3cccc(F)c3)nn12 [X-127, (R)-3-(3-fluorophenyl)-1-(6-(2-(3-fluorophenyl)pyrrolidin-1-yl)imidazo[1,2-b]pyridazin-3-yl)propan-1-one]",IC50,[1],38 nM
same,IC50,parental Ba/F3 cells,> 10000 nM
CS(=O)(=O)N1CC[C@H](NC(=O)c2cnc3ccc(N4CCC[C@@H]4c4cccc(F)c4)nn23)C1 [X-30],IC50,[1],31 nM
same,IC50,parental Ba/F3 cells,> 10000 nM
CC(C)(CO)NC(=O)c1cnc2ccc(N3CCC[C@@H]3c3cccc(F)c3)nn12 [X-83],IC50,[1],20 nM
same,IC50,parental Ba/F3 cells,> 10000 nM
CCn1nccc1NC(=O)c1cnc2ccc(N3CCC[C@@H]3c3cccc(F)c3)nn12 [X-77],IC50,[1],548 nM
same,IC50,parental Ba/F3 cells,> 10000 nM
"CCONC(=O)c1cnc2ccc(N3C[C@@H](F)C[C@@H]3c3cccc(F)c3)nn12 [X-142, N-ethoxy-6-((2R,4S)-4-fluoro-2-(3-fluorophenyl)pyrrolidin-1-yl)imidazo[1,2-b]pyridazine-3-carboxamide]",IC50,[1],1 nM
same,IC50,parental Ba/F3 cells,6690 nM
O=C(NCc1ccc(F)cc1)c1cnc2ccc(N3CCCC3c3cccc(F)c3)nn12 (stereo not shown) [X-24],IC50,[1],236 nM
same,IC50,parental Ba/F3 cells,> 10000 nM
NC(=O)c1cnc2ccc(N3C[C@@H](F)C[C@@H]3c3cc(F)cc(F)c3)nn12 [X-241],IC50,[1],3 nM
same,IC50,parental Ba/F3 cells,6700 nM
CC(C)OC(=O)Nc1cnc2ccc(N3CCC[C@@H]3c3cccc(F)c3)nn12 [X-234],IC50,[1],449 nM
same,IC50,parental Ba/F3 cells,> 10000 nM
O=C(c1cnc2ccc(N3CCC[C@@H]3c3cccc(F)c3)nn12)C(F)F [X-124],IC50,[1],844 nM
same,IC50,parental Ba/F3 cells,> 10000 nM
O=C(NC1CCS(=O)(=O)C1)c1cnc2ccc(N3CCC[C@@H]3c3cccc(F)c3)nn12 (stereo partly shown) [X-88],IC50,[1],53 nM
same,IC50,parental Ba/F3 cells,> 10000 nM
O=C(NCC(F)(F)F)c1cnc2ccc(N3CCCC3c3cccc(F)c3)nn12 (stereo not shown) [X-111],IC50,[1],13 nM
same,IC50,parental Ba/F3 cells,> 10000 nM
"NC(=O)c1cnc2ccc(N3CC=C[C@@H]3c3cccc(F)c3)nn12 [X-15, (R)-6-(2-(3-fluorophenyl)-2,5-dihydro-1H-pyrrol-1-yl)imidazo[1,2-b]pyridazine-3-carboxamide]",IC50,[1],13 nM
same,IC50,parental Ba/F3 cells,7260 nM
"CO/N=C(/N)c1cnc2ccc(N3CCC[C@@H]3c3cccc(F)c3)nn12 [X-228, (R)-6-(2-(3-fluorophenyl)pyrrolidin-1-yl)-N′-methoxyimidazo[1,2-b]pyridazine-3-carboximidamide]",IC50,[1],132 nM
same,IC50,parental Ba/F3 cells,> 10000 nM
CC(C)(C)NC(=O)c1cnc2ccc(N3CCC[C@@H]3c3cccc(F)c3)nn12 [X-45],IC50,[1],22 nM
same,IC50,parental Ba/F3 cells,> 10000 nM
CC(C)[C@H](CO)NC(=O)c1cnc2ccc(N3CCC[C@@H]3c3cccc(F)c3)nn12 [X-102],IC50,[1],31 nM
same,IC50,parental Ba/F3 cells,> 10000 nM
O=C(NCc1ccc(N2CC[C@@H](O)C2)nc1)c1cnc2ccc(N3CCC[C@@H]3c3cccc(F)c3)nn12 [X-99],IC50,[1],731 nM
same,IC50,parental Ba/F3 cells,> 10000 nM
O=C(NCc1nc2ccccc2s1)c1cnc2ccc(N3CCC[C@@H]3c3cccc(F)c3)nn12 [X-38],IC50,[1],196 nM
same,IC50,parental Ba/F3 cells,> 10000 nM
O=C(NCCN1CCOCC1)c1cnc2ccc(N3C[C@@H](F)C[C@@H]3c3cccc(F)c3)nn12 [X-113],IC50,[1],9 nM
same,IC50,parental Ba/F3 cells,> 10000 nM
"C[C@@H]1CN(c2ccc3ncc(C#N)n3n2)[C@@H](c2cccc(F)c2)C1(F)F [X-4, 6-((2S,4R)-3,3-difluoro-2-(3-fluorophenyl)-4-methylpyrrolidin-1-yl)imidazo[1,2-b]pyridazine-3-carbonitrile]",IC50,[1],155 nM
same,IC50,parental Ba/F3 cells,> 10000 nM
O=C(NC[C@@H]1CCCO1)c1cnc2ccc(N3CCC[C@@H]3c3cccc(F)c3)nn12 [X-85],IC50,[1],54 nM
same,IC50,parental Ba/F3 cells,> 10000 nM
CC(C)S(=O)(=O)N1CC[C@H](NC(=O)c2cnc3ccc(N4CCC[C@@H]4c4cccc(F)c4)nn23)C1 [X-31],IC50,[1],124 nM
same,IC50,parental Ba/F3 cells,> 10000 nM
CC(C)(Cc1ccc(F)cc1)NC(=O)c1cnc2ccc(N3CCC[C@@H]3c3cccc(F)c3)nn12 [X-41],IC50,[1],527 nM
same,IC50,parental Ba/F3 cells,9000 nM
N#Cc1cc(F)cc([C@H]2C[C@H](F)CN2c2ccc3ncc(C(N)=O)n3n2)c1 [X-244],IC50,[1],61 nM
same,IC50,parental Ba/F3 cells,> 10000 nM
